Data: patent US20230000832A1, “USE OF NEUROPILIN ANTAGONISTS FOR THE TREATMENT OF ENDOMETRIOSIS” (INSERM (Institut National de la Santé et de la Recherche …, priority 2019, published 2023)
Entries after “also recorded” stand apart in the source; their conditions may differ.

Assays:
[1] = system: human primary unmodified endometrial cell line (TH-EM1); test: Cell proliferation assay (WST-1) on primary endometrial cells; type: cell-based; settings: for endometrial growth inhibition: high concentration 10^−5M, since 2 days (D2) of exposure; for exposure time to reach maximum efficiency: low concentration between 10^−6 and 10^−7 M, effect stable at D5
Description: (§1) The human primary unmodified endometrial cell line (TH-EM1) describes by Gogusev j et al. 2019 is cultured with Dulbecco modified Eagle medium supplemented with 10% of fetal calf serum (FCS), L-glutamine, and antibiotics (Invitrogen-Thermo Fisher, Cergy-Pontoise, France). Cells were plated in 96-well plates or in 12-well plates to study cell proliferation or apoptosis, respectively.
Cells were plated in 200 μL/well in 96-well plates at 10^4 cells/well and were treated or not with Neuropilin antagonists (NRPa) such as NRPa-47, NRPa-48 at several concentration (10^−5 to 5·10^−8M) alone or in association with different concentrations of progestatif drugs such as Lutenyl® (Nomegestrol acetate) at 3·10^−5 M during 48 h, 72 h or 120 h. WST-1 (Roche®, France) was added for 2 h, then Optical Density was analyzed with a microplate reader (Microplate Manager 5.2, Bio-Rad) at 490 nm to determine the cell viability.

[2] = system: human primary unmodified endometrial cell line (TH-EM1); test: Apoptosis assay (Annexin-V/7AAD, flow cytometry); type: cell-based; settings: 10^−6 M, 72 h, versus untreated and DMSO treated cells
Description: as §1
Cells were plated in 2000 μL/well in 12-well plates at 5·10^5 cells/well and were treated or not with Neuropilin antagonists (NRPa) such as NRPa-47, NRPa-48 during 48 h to 72 h at 10^−6M. Then, cells are harvested and stained using Annexin-V/7AAD kit protocol following manufacturer's recommendation. Then, stained cells were analyzed on a fluorescence activated cell sorter (FACS) Calibur flow cytometer (Becton Dickinson Co, Mountain View, Calif.) and data analysis was performed with Flowjo software.

Cc1ccc(-c2nc3ccccc3[nH]2)cc1NC(=S)NC(=O)c1ccc2c(c1)OCCO2 [NRPa-47, N-[5-(1H-benzimidazol-2-yl)-2-methylphenyl]-N′-(2,3-dihydro-1,4-benzodioxin-6-ylcarbonyl)thiourea]
inhibition at 10 µM ([1]; Homo sapiens, 10^−5M, after 48 h (D2), consistent at 72 h (D3), read-out: decrease of cell survival / inhibition of endometrial cells): 80% | IC50 on primary endometrial cell proliferation ([1]; NRPa alone, concentration range, time course D2 to D5, approximative/calculated): 10^−6 to 10^−7 M | effect of association with progestogen on cell growth inhibition ([1]; NRPa-47 5·10^−7M (6·10^−7 M) with Lutenyl (Nomegestrol acetate) 3·10^−5 M): Additif effect; also recorded: additive effect | endometrial growth inhibition [1]: rapid endometrial growth inhibition | exposure time to reach maximum efficiency [1]: 3 days | induction of apoptosis and necrosis / cell death of endometrial cells [2]: induction of apoptosis; also recorded: induced endometrial cell death

O=C(NC(=S)Nc1cccc(-c2nc3ccccc3[nH]2)c1)c1ccc2c(c1)OCCO2 [NRPa-48, N-[3-(1H-benzimidazol-2-yl)phenyl]-N′-(2,3-dihydro-1,4-benzodioxin-6-ylcarbonyl)thiourea]
IC50 ([1]; Homo sapiens, NRPa alone, approximative, same value restated in nM): ~100 nM | IC50 ([1]; Homo sapiens, NRPa alone, concentration range, time course D2 to D5, approximative/calculated): 100 nM | effect of association with progestogen on cell growth inhibition ([1]; NRPa-48 5·10^−8M with Lutenyl (Nomegestrol acetate) 3·10^−5 M): synergistic effect | endometrial growth inhibition [1]: rapid endometrial growth inhibition | exposure time to reach maximum efficiency [1]: 3 days | induction of apoptosis and necrosis / cell death of endometrial cells [2]: induction of apoptosis; also recorded: induced endometrial cell death
